# In PMC4673272, “Oral nano-delivery of anticancer ginsenoside 25-OCH3-PPD, a natural inhibitor of the MDM2 oncogene: Nanoparticle preparation, characterization, in vitro and in vivo anti-prostate cancer activity, and mechanisms of action” (Oncotarget, 2015):
# Tests used:
# Caco-2 cell monolayers = assay: Caco-2 cell monolayer permeability assay; type: in vitro ADME, Human; conditions: apical to basolateral, 37°C, pH 6.0
# Protocol: The Caco-2 cell monolayer permeability assay was performed as reported previously. In brief, Caco-2 cells were seeded onto polycarbonate 6-well Transwell® inserts (mean pore size 3.0 μm, Corning Costar Inc., NY, USA) at a density of 4 × 10^5 cells/well, then the confluent monolayers (10–12 days) were used for permeability studies. The transepithelial electrical resistance (TEER) of the monolayer was measured using an epithelial voltohmmeter (EVOM, WPI Inc., USA) to determine the formation of the monolayer and its integrity during the experiment. The studies were carried out in HBSS containing 30 mM HEPES at pH 6.0. Monolayers were washed with HBSS prior to the experiment, after which 0.5 and 1.2 mL of HBSS was placed into the upper and lower compartments, respectively. A total volume of 100 μL of solution (1 or 5 μg/mL) was taken from the lower compartment at regular intervals over 120 min and replaced with the same volume of fresh buffer, followed by a LC-MS/MS analysis. Apparent permeability coefficients (Papp) were calculated using the equation: (∂Q/∂t)/(A*C0), where “∂Q/∂t” is the permeability rate of the drug across the cells, “A” is the diffusion area of the monolayer and “C0” is the initial concentration of GS25 in the upper compartment.
# [1] = system: LNCaP (p53 wild-type) cells; assay: Cell viability, MTT assay, LNCaP; type: cell-based, Human; conditions: GS25 equivalent
# Protocol: (§1) Assays for cell viability and apoptosis were performed as described previously. In brief, 3–4 × 10^4 cells were seeded in a 96-well plate and treated with various concentrations of GS25 or GS25NP for 24, 48, or 72 h for the MTT assay. To detect apoptosis, 2–3 × 10^5 cells were seeded in 6-well plates and were treated with GS25 or GS25NP for 48 h. Cells positive for Annexin V-FITC and PI were counted on a BD FACSVerse instrument (BD Biosciences, CA, USA).
# DU145 (p53 mutant) cells = assay: Cell viability, MTT assay, DU145; type: cell-based, Human; conditions: GS25 equivalent
# Protocol: as §1
# PC3 (p53 null) cells = assay: Cell viability, MTT assay, PC3; type: cell-based, Human; conditions: GS25 equivalent
# Protocol: as §1
# LNCaP cells = assay: Apoptosis, Annexin V-FITC, LNCaP; type: cell-based, Human; conditions: 12.3 μg/mL, 48 h
# Protocol: as §1
# DU145 cells = assay: Apoptosis, Annexin V-FITC, DU145; type: cell-based, Human; conditions: DU145, 12.3 μg/mL, 48 h
# Protocol: as §1
# PC3 cells = assay: Apoptosis, Annexin V-FITC, PC3; type: cell-based, Human; conditions: PC3, 12.3 μg/mL, 48 h
# Protocol: as §1
# MDM2 = assay: Western blotting of MDM2 and apoptosis-related proteins in prostate cancer cells; type: cell-based, Human; conditions: 2.5 μg/mL, 24 h, LNCaP, DU145, PC3 cells
# Protocol: In the in vitro studies, prostate cancer cells with or without GS25 or GS25NP treatment were lysed in NP40 lysis buffer containing a protease inhibitor mixture (Sigma, St. Louis, MO, USA). In the in vivo studies, tumor tissues were removed and homogenized in NP40 lysis buffer (100 mg tumor tissue/1 mL NP40 buffer), and the supernatants of the homogenates was collected. Then, the cell lysates and tumor homogenates were subjected to Western blotting analyses for the expression levels of MDM2 and other related proteins using the methods described in our previous studies.
# [2] = Pharmacokinetics and biodistribution in CD-1 mice; type: in vivo
# Protocol: Pharmacokinetic studies were carried out in normal CD-1 mice and nude mice bearing PC3 xenograft tumors as described previously. Briefly, male CD-1 mice were divided randomly into four groups with three mice per time point. One group received 20 mg/kg of GS25 in PEG400:EtOH:saline by intravenous injection into the tail vein. One group of mice received GS25 in PEG400:EtOH:saline (57.1:14.3:28.6, v/v/v) at a dose of 100 mg/kg by oral administration. Two groups received GS25NP at a dose of 20 mg/kg and 100 mg/kg by oral administration. Nude mice bearing PC3 xenografts were divided into two groups and given GS25 and GS25NP at a dose of 100 mg/kg by oral administration. For orally-dosed mice, the plasma and various tissues (tumor, liver, lungs, kidneys, spleen, heart, brain, pancreas, fat, stomach, stomach contents, small intestine, small intestine contents, large intestine, and large intestine contents) were collected at 0, 15, 30, and 60 min, and 2, 4, 8, 24, 48, and 72 h after treatment. For mice that received an i.v. injection, various tissues were collected at 0, 5, 10, 30, and 60 min, and 2, 4, 8, 24, 48, and 72 h after treament. The plasma and tissue samples were stored at −80°C until they were analyzed by LC-MS/MS.
# [3] = Maximum tolerated dose (MTD) study; type: in vivo; conditions: CD-1 mice, oral
# Protocol: To assess the possible host toxicity of GS25 and GS25NP and establish initial doses for in vivo treatment, a multi-dose MTD study was initially performed for both GS25 and GS25NP at a dose of 200 mg/kg for 7 days. […] The toxicity studies were continued with dose of 400 mg/kg/d for 7 days using a similar protocol. At the end of the study, all mice were euthanized, and various tissues (liver, lungs, kidneys, spleen, heart, and brain) were collected for a pathological analysis.
# PC3 xenograft tumors = assay: In vivo efficacy and host toxicity in PC3 prostate cancer xenograft model; set-up: species or system nude mice
# Protocol: The animal study protocol was approved by the Institutional Animal Use and Care Committee of the Texas Tech University Health Sciences Center. Male athymic pathogen-free nude mice (nu/nu, 4–6 weeks) were purchased from Charles River Laboratories (Wilmington, MA). The PC3 human prostate cancer xenografts were established as reported previously. Briefly, a total of 5 × 10^6 PC3 cells (in 0.1 mL) were subcutaneously injected into the left inguinal area of the mice. All animals were monitored for activity, physical condition, body weight, and tumor growth. When the tumor volume reached ~ 100 mm^3, the mice bearing PC3 xenografts were randomly divided into treatment and control groups (10 mice/each group). GS25NP was dissolved in water and administered by oral gavage at a dose of 20 mg/kg/d or 100 mg/kg/d, 5 day/week for 4 weeks, while GS25 in PEG400:EtOH:saline (57.1:14.3:28.6, v/v/v) was administered at a dose of 100 mg/kg/d for 4 weeks. The control groups received vehicle only or void NPs. At the end of the experiment, xenograft tumors and various organs (liver, lungs, kidneys, spleen, heart, and brain) were excised and snap frozen for Western blotting, immunohistochemical studies, TUNEL assays, and hematoxylin and eosin staining.
# All of the staining assays were performed as described previously. Briefly, tissues were fixed and embedded in paraffin, cut into 5 μm sections, and then affixed onto glass slides. For the immunohistochemical studies, the tumor sections were blocked and incubated with a biotinylated anti-human MDM2 antibody (diluted 1:50 in 5% BSA in PBS) for 1–2 h at room temperature. Sections were then incubated with pre-diluted streptavidin-peroxidase HRP conjugates and stained with DAB chromogen according to the manufacturer's instructions. Finally, sections were lightly counterstained with hematoxylin. […] Tissue sections were analyzed under a phase-contrast Olympus microscope (Olympus America Inc).
# [4] = nude mice bearing PC3 xenografts, 4-week oral treatment (GS25 100 mg/kg; GS25NP 20 and 100 mg/kg)
compound,measurement,setting,value
"COC(C)(C)CCC[C@](C)(O)[C@H]1CC[C@]2(C)[C@@H]1[C@H](O)C[C@@H]1[C@@]3(C)CC[C@H](O)C(C)(C)[C@@H]3CC[C@]12C [GS25, 20(s)-25-methoxyl-dammarane-3beta, 12beta, 20-triol]",Apparent permeability coefficient (Papp),Caco-2 cell monolayers,38 ×10⁻⁶ cm/s
same,IC50 LNCaP,[1]; treatment time 24 h,18.3 µg/mL
same,IC50 LNCaP,[1]; treatment time 48 h,11.6 µg/mL
same,IC50 LNCaP,[1]; treatment time 72 h,8.0 µg/mL
same,IC50 DU145,DU145 (p53 mutant) cells; treatment time 24 h,13.1 µg/mL
same,IC50 DU145,DU145 (p53 mutant) cells; treatment time 48 h,8.0 µg/mL
same,IC50 DU145,DU145 (p53 mutant) cells; treatment time 72 h,5.4 µg/mL
same,IC50 PC-3,PC3 (p53 null) cells; treatment time 24 h,10.9 µg/mL
same,IC50 PC-3,PC3 (p53 null) cells; treatment time 48 h,6.7 µg/mL
same,IC50 PC-3,PC3 (p53 null) cells; treatment time 72 h,3.8 µg/mL
same,Apoptotic cells,LNCaP cells,28.5%
same,Apoptotic cells,DU145 cells,18.2%
same,Apoptotic cells,PC3 cells,22.9%
same,"Effect on MDM2 and apoptosis-associated protein levels (p53, Bax, cleaved-PARP)",MDM2,did not produce significant effects
same,Oral bioavailability,[2]; 100 mg/kg oral vs 20 mg/kg i.v.,~ 14.9%
same,AUC0-t,"[2]; plasma, 100 mg/kg, p.o.",3500 ng·h/mL
same,Cmax,"[2]; plasma, 100 mg/kg, p.o.",900 ng/mL
same,T1/2,"[2]; plasma, 100 mg/kg, p.o.",2.1 h
same,Body weight change in MTD study,[3]; 200 or 400 mg/kg/d for 7 days,No significant decrease in mouse body weight
same,"Histological examination of liver, lungs, kidneys, spleen, heart, brain vs vehicle",[3]; 200 or 400 mg/kg/d for 7 days,no significant differences among the groups
same,Toxicity in MTD study,[3]; up to 400 mg/kg/d for 7 days,no toxicity
same,Inhibition of PC3 xenograft tumor growth,"PC3 xenograft tumors; 100 mg/kg oral, 5 days/week for 4 weeks",approximately 41%
same,Change in average body weight,PC3 xenograft tumors; [4],no significant changes in the average body weights
same,"Histological findings in liver, lungs, kidneys, spleen, heart, brain vs control",PC3 xenograft tumors; [4],no significant differences in the histological findings
